Experimental findings from PubChem BioAssay (NCI) are described below.

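Protocol summary: plate cells (96-well), add compound at 5 concentrations, incubate 48 h, interpolate endpoints linearly. At the GI50, growth is halved. TGI denotes the concentration required for complete inhibition of growth.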

The subject of the assay is P388/ADR leukemia. Briefly: NCI tumour cell line growth inhibition, 48 h.

Take `Cc1cc([NH-])c([NH-])cc1C.[Cl][Pt+2][Cl]`: the GI50 was 2.36 µM and the TGI is 6.97 µM.
